Experimental data from patent publication US9695155B2, “Herbicidal substituted pyrimidinyloxy benzene compounds” (E. I. DU PONT DE NEMOURS AND COMPANY, priority 2013, dated 2017).

Experiments:
[1] = system: wild oat; assay: Test D postemergence; type: in vivo, Avena fatua; conditions: Avena fatua, post-emergence
Outline: (§1)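 Solvent/surfactant formulations are sprayed pre (silt loam) or post (1–4 leaf plants, 2–18 cm). Plants stay 7–21 days in controlled conditions before a visual 0–100 score is given.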

[2] = system: hairy beggarticks; assay: Test E postemergence; type: in vivo, Bidens pilosa; conditions: Bidens pilosa, post-emergence, read-out: Plant response rating, Beggarticks
Outline: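 Response was scored visually on a 0-100 scale (100 = complete control) versus controls after 14 to 21 days in the greenhouse. Test chemicals, formulated with surfactant in a non-phytotoxic solvent mixture, had been applied preemergence to seeds in silt loam soil or postemergence to 1- to 4-leaf plants in potting medium.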

[3] = system: green foxtail; assay: Test D preemergence; type: in vivo, Setaria viridis; conditions: Setaria viridis, pre-emergence
Outline: as §1

[4] = system: bromegrass, downy; assay: Test D preemergence; type: in vivo, Bromus tectorum; conditions: Bromus tectorum, pre-emergence
Outline: as §1

[5] = system: chamomile; assay: Test D postemergence; type: in vivo, Matricaria inodora; conditions: Tripleurospermum inodorum, post-emergence
Outline: as §1

[6] = system: canarygrass; assay: Test D preemergence; type: in vivo, Phalaris minor; conditions: Phalaris minor, pre-emergence
Outline: as §1

[7] = system: sandbur; assay: Test E postemergence; type: in vivo, Cenchrus echinatus; conditions: Cenchrus echinatus, post-emergence, read-out: Plant response rating, Sandbur
Description: (§2) Seeds of plant species selected from corn (Zea mays), soybean (Glycine max), velvetleaf (Abutilon theophrasti), lambsquarters (Chenopodium album), wild poinsettia (Euphorbia heterophylla), palmer pigweed (Amaranthus palmeri), waterhemp (common waterhemp, Amaranthus rudis), surinam grass (Brachiaria decumbens), large (Lg) crabgrass (Digitaria sanguinalis), Brazilian crabgrass (Digitaria horizontalis), fall panicum (Panicum dichotomiflorum), giant foxtail (Setaria faberii), green foxtail (Setaria viridis), goosegrass (Eleusine indica), johnsongrass (Sorghum halepense), ragweed (common ragweed, Ambrosia elatior), barnyardgrass (Echinochloa crus-galli), sandbur (southern sandbur, Cenchrus echinatus), arrowleaf sida (Sida rhombifolia), Italian ryegrass (Lolium multiflorum), dayflower (Virginia (VA) dayflower, Commelina virginica), field bindweed (Convolvulus arvensis), morningglory (Ipomoea coccinea), nightshade (eastern black nightshade, Solanum ptycanthum), kochia (Kochia scoparia), yellow nutsedge (Cyperus esculentus), cocklebur (common cocklebur, Xanthium strumarium), smartweed (ladysthumb smartweed, and hairy beggarticks (Bidens pilosa), were planted into a silt loam soil and treated preemergence with test chemicals formulated in a non-phytotoxic solvent mixture which included a surfactant.
(§3) At the same time, plants from these crop and weed species and also horseweed (Canada horseweed, Conyza canadensis), waterhemp_RES1, (ALS & Triazine resistant common waterhemp, Amaranthus rudis), and waterhemp_RES2, (ALS & HPPD resistant common waterhemp, Amaranthus rudis) were planted in pots containing Redi-Earth® planting medium (Scotts Company, 14111 Scottslawn Road, Marysville, Ohio 43041) comprising spaghnum peat moss, vermiculite, wetting agent and starter nutrients were treated with postemergence applications of test chemicals formulated in the same manner. Plants ranged in height from 2 to 18 cm for postemergence treatments (1- to 4-leaf stage). Treated plants and controls were maintained in a greenhouse for 14 to 21 days, after which time all species were compared to controls and visually evaluated. Plant response ratings, summarized in Table E, are based on a scale of 0 to 100 where 0 is no effect and 100 is complete control. A dash (-) response means no test result.

[8] = system: galium; assay: Test D preemergence; type: in vivo, Galium aparine; conditions: Galium, pre-emergence
Outline: as §1

[9] = system: spring barley; assay: Test D preemergence; type: in vivo, Hordeum vulgare; conditions: Hordeum vulgare, pre-emergence
Outline: as §1

[10] = system: waterhemp; assay: Test E postemergence; type: in vivo, Amaranthus rudis; conditions: Amaranthus tuberculatus, post-emergence, read-out: Plant response rating, Waterhemp
Description: as §2, §3

[11] = system: waterhemp_RES2 (ALS & HPPD resistant common waterhemp); assay: Test E postemergence; type: in vivo, Amaranthus rudis; conditions: Amaranthus tuberculatus, post-emergence, read-out: Plant response rating, Waterhemp_RES2
Description: as §2, §3

[12] = Postemergence, 31 g ai/ha, scale 0 to 100
[13] = Postemergence, 62 g ai/ha, scale 0 to 100
[14] = Postemergence, 125 g ai/ha, scale 0 to 100
[15] = postemergence, 8 g ai/ha, scale 0 to 100, 0 no effect, 100 complete control
[16] = postemergence, 16 g ai/ha, scale 0 to 100, 0 no effect, 100 complete control

With `Clc1cnc(Oc2ccccc2-n2cc(Br)cn2)nc1` [Compound 7, 2-[2-(4-bromo-1H-pyrazol-1-yl)phenoxy]-5-chloropyrimidine] the pest or weed control at 16 g/ha ([1]; 16 g ai/ha, scale 0-100, read-out: Plant response rating, Oat, Wild) was 0%, the pest or weed control at 31 g/ha ([1]; 31 g ai/ha, scale 0 to 100 (0 no effect, 100 complete control), read-out: Plant response rating, Oat, Wild) was 0% and the pest or weed control at 62 g/ha ([1]; 62 g ai/ha, scale 0 to 100 (0 no effect, 100 complete control), read-out: Plant response rating, Oat, Wild) was 0%. It also gave a pest or weed control at 125 g/ha ([1]; 125 g ai/ha, scale 0 to 100 (0 no effect, 100 complete control), read-out: Plant response rating, Oat, Wild) of 10%, a pest or weed control at 250 g/ha ([1]; 250 g ai/ha, scale 0 to 100 (0 no effect, 100 complete control), read-out: Plant response rating, Oat, Wild) of 25% and a pest or weed control at 31 g/ha [2, 12] of 40%. The pest or weed control at 62 g/ha [2, 13] was 50%, the pest or weed control at 125 g/ha [2, 14] was 60% and the pest or weed control at 8 g/ha [2, 15] was 25%. For the same compound, the pest or weed control at 16 g/ha [2, 16] was 35%, the pest or weed control at 16 g/ha ([3]; 16 g ai/ha, scale 0 (no effect) to 100 (complete control), read-out: Plant response rating, Foxtail, Green) was 0% and the pest or weed control at 31 g/ha ([3]; 31 g ai/ha, scale 0-100, read-out: Plant response rating, Foxtail, Green) was 0%. For the same compound, the pest or weed control at 62 g/ha ([3]; 62 g ai/ha, scale 0-100, read-out: Plant response rating, Foxtail, Green) was 0%, the pest or weed control at 125 g/ha ([3]; 125 g ai/ha, scale 0-100, read-out: Plant response rating, Foxtail, Green) was 0% and the pest or weed control at 250 g/ha ([3]; 250 g ai/ha, scale 0-100, read-out: Plant response rating, Foxtail, Green) was 20%. The pest or weed control at 16 g/ha ([4]; 16 g ai/ha, scale 0 (no effect) to 100 (complete control), read-out: Plant response rating, Bromegrass, Downy) was 0%, the pest or weed control at 31 g/ha ([4]; 31 g ai/ha, scale 0-100, read-out: Plant response rating, Bromegrass, Downy) was 0% and the pest or weed control at 62 g/ha ([4]; 62 g ai/ha, scale 0-100, read-out: Plant response rating, Bromegrass, Downy) was 0%. For the same compound, the pest or weed control at 125 g/ha ([4]; 125 g ai/ha, scale 0-100, read-out: Plant response rating, Bromegrass, Downy) was 0%, the pest or weed control at 250 g/ha ([4]; 250 g ai/ha, scale 0-100, read-out: Plant response rating, Bromegrass, Downy) was 0% and the pest or weed control at 16 g/ha ([5]; 16 g ai/ha, scale 0-100, read-out: Plant response rating, Chamomile) was 0%. The pest or weed control at 31 g/ha ([5]; 31 g ai/ha, scale 0 to 100 (0 no effect, 100 complete control), read-out: Plant response rating, Chamomile) was 0%, the pest or weed control at 62 g/ha ([5]; 62 g ai/ha, scale 0 to 100 (0 no effect, 100 complete control), read-out: Plant response rating, Chamomile) was 0% and the pest or weed control at 125 g/ha ([5]; 125 g ai/ha, scale 0 to 100 (0 no effect, 100 complete control), read-out: Plant response rating, Chamomile) was 0%. It also gave a pest or weed control at 250 g/ha ([5]; 250 g ai/ha, scale 0 to 100 (0 no effect, 100 complete control), read-out: Plant response rating, Chamomile) of 0%, a pest or weed control at 16 g/ha ([6]; 16 g ai/ha, scale 0 (no effect) to 100 (complete control), read-out: Plant response rating, Canarygrass) of 0% and a pest or weed control at 31 g/ha ([6]; 31 g ai/ha, scale 0-100, read-out: Plant response rating, Canarygrass) of 0%. For the same compound, the pest or weed control at 62 g/ha ([6]; 62 g ai/ha, scale 0-100, read-out: Plant response rating, Canarygrass) was 0%, the pest or weed control at 125 g/ha ([6]; 125 g ai/ha, scale 0-100, read-out: Plant response rating, Canarygrass) was 0% and the pest or weed control at 250 g/ha ([6]; 250 g ai/ha, scale 0-100, read-out: Plant response rating, Canarygrass) was 25%. The pest or weed control at 31 g/ha [7, 12] was 0%, the pest or weed control at 62 g/ha [7, 13] was 0% and the pest or weed control at 125 g/ha [7, 14] was 0%. For the same compound, the pest or weed control at 8 g/ha [7, 15] was 0%, the pest or weed control at 16 g/ha [7, 16] was 0% and the pest or weed control at 16 g/ha ([8]; 16 g ai/ha, scale 0 (no effect) to 100 (complete control), read-out: Plant response rating, Galium) was 0%. It also gave a pest or weed control at 31 g/ha ([8]; 31 g ai/ha, scale 0-100, read-out: Plant response rating, Galium) of 0%, a pest or weed control at 62 g/ha ([8]; 62 g ai/ha, scale 0-100, read-out: Plant response rating, Galium) of 20% and a pest or weed control at 125 g/ha ([8]; 125 g ai/ha, scale 0-100, read-out: Plant response rating, Galium) of 30%. The pest or weed control at 250 g/ha ([8]; 250 g ai/ha, scale 0-100, read-out: Plant response rating, Galium) was 40%, the plant injury at 16 g/ha ([9]; 16 g ai/ha, scale 0 (no effect) to 100 (complete control), read-out: Plant response rating, Barley, Spring) was 0% and the plant injury at 31 g/ha ([9]; 31 g ai/ha, scale 0-100, read-out: Plant response rating, Barley, Spring) was 0%. For the same compound, the plant injury at 62 g/ha ([9]; 62 g ai/ha, scale 0-100, read-out: Plant response rating, Barley, Spring) was 0%, the plant injury at 125 g/ha ([9]; 125 g ai/ha, scale 0-100, read-out: Plant response rating, Barley, Spring) was 0% and the plant injury at 250 g/ha ([9]; 250 g ai/ha, scale 0-100, read-out: Plant response rating, Barley, Spring) was 0%. It also gave a pest or weed control at 31 g/ha [10, 12] of 90%, a pest or weed control at 62 g/ha [10, 13] of 90% and a pest or weed control at 125 g/ha [10, 14] of 90%. For the same compound, the pest or weed control at 8 g/ha [10, 15] was 70%, the pest or weed control at 16 g/ha [10, 16] was 80% and the pest or weed control at 31 g/ha [11, 12] was 80%. The pest or weed control at 62 g/ha [11, 13] was 90%, the pest or weed control at 125 g/ha [11, 14] was 95% and the pest or weed control at 16 g/ha [11, 16] was 75%.
